Source: patent US6214821A, “Methods and composition for the inhibition of cancer cells” (Washington State University Research Foundation, priority 1999, dated 2001)
Where two headings read alike, the source gives them in different places.

Columns and labels:
[1] = tested on: CPT-sensitive cells; conditions: very high doses of CPT; cited from earlier work
[2] = tested on: MDA-231 cells; assay: cells; format: cell-based, human; conditions: Homo sapiens
Description: (§1) . Cell lines and Culture.
(§2) Drugs and Chemical Reagents. […] . […] All other chemicals were reagent grade.
(§3) Drug Treatment and Survival Curves.
(§4) Pharmacol. 28:370-376 (1991). […] .
(§5) Drug Combinations and Data Analysis. […] . Pharmacol. (in press, 1997). […] Enzyme Regul. […] Enzyme Regul. 22:27-55 (1984).
(§6) . […] Enzyme Regul. 22:27-55 (1984).

[3] = tested on: GI 101A cells; assay: cells; format: cell-based, human; conditions: Homo sapiens, 24 h
Description: as §1, §2, §3, §4, §5, §6

[4] = tested on: GI 101A cells; conditions: cited from earlier work
[5] = in vivo; conditions: rat, iv, 10 mg/kg
[6] = tested on: MDA-231 cells; conditions: cited from earlier work
[7] = tested on: CPT-resistant cells; conditions: low doses of CPT; cited from earlier work
[8] = tested on: MDA-231 cells; assay: Flow cytometric cell cycle analysis (propidium iodide); format: cell-based, human; conditions: 100 nM CPT, 24 h
[9] = tested on: GI 101A cells; assay: as above; format: cell-based, human; conditions: 100 nM CPT, 24 h
[10] = tested on: normal bovine venular endothelial cells (BVEC); assay: cells; conditions: Bos taurus, Endothelial cell, 24 h, read-out: dose inhibiting growth by 50% (CPT alone)
[11] = tested on: normal endothelial cells (BVEC); assay: Flow cytometric cell cycle analysis (propidium iodide); format: cell-based, bovine; conditions: 100 nM CPT, 24 h
[12] = tested on: p34^cdc2 in HeLa cells; conditions: CPT treatment; cited from earlier work
[13] = tested on: murine bone marrow cells (CFU-GM); assay: In vitro bone marrow cell protection assay (CFU-GM colonies); format: cell-based, C57/BL mice; conditions: Mus musculus, 0-1000 nM, combination 1:1 molar ratio
[14] = tested on: MDA-231 (mutant p53); assay: Crystal violet staining growth inhibition assay, median effect analysis; conditions: Homo sapiens, MDA-MB-231, 24 h, read-out: IC50 MDA-231 (p53-)
[15] = tested on: MDA-231 cells; assay: ELISA BrdU incorporation assay (DNA synthesis); format: cell-based, human; conditions: TPT 10 and 50 nM, 24 hr
[16] = basic side-chain at position 9 forms salts with acids; cited from earlier work
[17] = tested on: HMEC (p53+); assay: Crystal violet staining growth inhibition assay, median effect analysis; conditions: Homo sapiens, 24 h, read-out: IC50 HMEC (p53+)
[18] = tested on: HMEC/E6 (p53-); assay: as above; format: cell-based; conditions: Homo sapiens, 24 hr treatment
Description: Cytotoxicity and Bromodeoxyuridine incorporation assays. […] Enzyme Regul.

[19] = tested on: MDA-231 cells; assay: FACS cell cycle / BrdU DNA synthesis assay; format: cell-based, human; conditions: TPT 10, 50, 100 nM, 24 h, FIG. 8A
[20] = tested on: DNA damage-dependent G2 -checkpoint; conditions: cited from earlier work

In the case of `CC[C@@]1(O)C(=O)OCc2c1cc1n(c2=O)Cc2cc3ccccc3nc2-1` [CPT, Camptothecin], the 3H-thymidine incorporation [1] is given as “continued to incorporate ^3 H-thymidine”, the IC50 ([2]; MDA-MB-231, 24 h, read-out: 50% inhibition of cell growth (CPT alone)) is given as 200 nM and the IC50 ([2]; MDA-MB-231, 24 h, read-out: median-effect dose, Dm, for CPT) is given as 28 nM. The IC50 ([2]; MDA-MB-231, read-out: IC50 of CPT in the absence of UCN-01 (so in the source)) was 5 nM, the IC50 ([3]; read-out: 50% inhibition of cell growth (CPT alone)) was 300 nM and the IC50 ([3]; read-out: median-effect dose, Dm, for CPT) was 104 nM. For the same compound, the “cell cycle effect of CPT at low and high doses” value [4] was “in the G2 phase while at high doses cells are arrested in the S phase”, the half-life ([5]; in vivo) was 85 min and the “cell cycle effect of CPT at low and high doses” value [6] was “in the G2 phase while at high doses cells are arrested in the S phase”. For the same compound, the 3H-thymidine incorporation [7] was “stopped incorporating ^3 H-thymidine”, the “cell cycle effect of CPT alone” value [8] was “caused an arrest of tumor as well as normal cells in S phase” and the “cell cycle effect of CPT alone” value [9] was “caused an arrest of tumor as well as normal cells in S phase”. The IC50 [10] was over 1000 nM, the “cell cycle effect of CPT alone” value [11] was “caused an arrest of tumor as well as normal cells in S phase” and the p34cdc2 activity [12] was “loss in activity of p34^cdc2 in HeLa cells”.

In the case of `CC[C@@]1(O)C(=O)OCc2c1cc1n(c2=O)Cc2cc3c(CN(C)C)c(O)ccc3nc2-1` [TPT, (S)-10[(dimethylamino)methyl]-4-ethyl-4,9-dihydroxy-IH-pyrano[3',4': 6,7]ind olizino[1,2-b]quinolone-3,14(4H,12H)-dione], the half-life ([5]; plasma) is reported as 92 min, the IC50 [13] is reported as 19 nM and the IC50 [14] is reported as 37 nM. The BrdU incorporation [15] was “stopped incorporating BrdU”, the water solubility [16] was “water-soluble” and the IC50 [17] was 6 nM. For the same compound, the IC50 [18] was 34 nM and the “cell cycle effect of TPT by itself” value [19] was “induced an accumulation of MDA-231 cells in S phase”.

In the case of `Cn1c(=O)c2c(ncn2C)n(C)c1=O` [caffeine], the “effect on DNA damage-dependent G2 checkpoint” value [20] is listed as “override the DNA damage-dependent G2 -checkpoint and enhance drug-induced cytotoxicity”.
